Experimental data published in US12281122B1, “PI3K inhibitors” (Cogent Biosciences, Inc., priority 2023, dated 2025).

Experiments:
[1] = target: PI3Kα H1047R (Homo sapiens, UniProt P42336, H1047R); assay: PI3Kα H1047R enzyme assay (Transcreener ADP2 TR-FRET Red Assay); type: biochemical; details: purified recombinant full-length protein; 2 hours pre-incubation with compound
Summary of the method: (§1)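 Purified recombinant full-length enzymes pre-incubated 2 h at room temperature with compounds (11-point 1:3 dilutions, typically 50,000–0.85 nM), then started with ATP/PI(4,5)P2 diC8 and run 60 min at room temperature in 40 mM HEPES pH 7.5, 20 mM NaCl, 25 mM MgCl2, 0.01% Triton X-100. ADP detected by TR-FRET 665/615 ratio; IC50 from four-parameter fit of percent of control.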

[2] = target: PI3Kα (Homo sapiens, UniProt P42336); assay: PI3Kα enzyme assay (Transcreener ADP2 TR-FRET Red Assay); type: biochemical; details: purified recombinant full-length protein; 2 hours pre-incubation with compound; read-out: PI3Kα WT IC50
Sequence of PI3Kα (P42336 whole entry): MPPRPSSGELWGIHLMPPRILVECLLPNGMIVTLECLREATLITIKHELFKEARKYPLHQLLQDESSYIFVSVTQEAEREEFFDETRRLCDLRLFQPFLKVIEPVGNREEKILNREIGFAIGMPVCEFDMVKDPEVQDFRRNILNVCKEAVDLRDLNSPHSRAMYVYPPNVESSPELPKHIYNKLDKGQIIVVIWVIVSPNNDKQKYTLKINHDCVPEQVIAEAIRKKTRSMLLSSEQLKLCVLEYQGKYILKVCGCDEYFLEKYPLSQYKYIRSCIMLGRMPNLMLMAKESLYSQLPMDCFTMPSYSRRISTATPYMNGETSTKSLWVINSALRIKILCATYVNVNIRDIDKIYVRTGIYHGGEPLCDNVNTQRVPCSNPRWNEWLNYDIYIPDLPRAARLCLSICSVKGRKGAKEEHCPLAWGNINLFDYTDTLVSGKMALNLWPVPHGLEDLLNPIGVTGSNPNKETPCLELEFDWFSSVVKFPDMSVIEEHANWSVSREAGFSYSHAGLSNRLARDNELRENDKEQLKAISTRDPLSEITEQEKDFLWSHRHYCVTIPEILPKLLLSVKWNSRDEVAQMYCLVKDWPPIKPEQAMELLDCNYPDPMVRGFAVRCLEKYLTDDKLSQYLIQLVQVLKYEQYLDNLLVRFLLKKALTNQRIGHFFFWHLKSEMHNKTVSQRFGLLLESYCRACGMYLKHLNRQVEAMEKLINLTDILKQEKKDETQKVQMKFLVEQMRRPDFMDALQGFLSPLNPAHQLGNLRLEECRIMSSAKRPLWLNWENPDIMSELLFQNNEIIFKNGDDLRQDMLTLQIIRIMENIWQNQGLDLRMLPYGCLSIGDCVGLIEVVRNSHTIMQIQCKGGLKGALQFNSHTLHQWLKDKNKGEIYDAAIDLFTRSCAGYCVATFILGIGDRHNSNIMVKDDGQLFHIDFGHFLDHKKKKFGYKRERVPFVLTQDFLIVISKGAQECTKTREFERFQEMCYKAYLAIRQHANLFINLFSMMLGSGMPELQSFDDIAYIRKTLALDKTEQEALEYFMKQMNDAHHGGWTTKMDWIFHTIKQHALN
Sequence of PI3Kα (P27986 2-724 partner): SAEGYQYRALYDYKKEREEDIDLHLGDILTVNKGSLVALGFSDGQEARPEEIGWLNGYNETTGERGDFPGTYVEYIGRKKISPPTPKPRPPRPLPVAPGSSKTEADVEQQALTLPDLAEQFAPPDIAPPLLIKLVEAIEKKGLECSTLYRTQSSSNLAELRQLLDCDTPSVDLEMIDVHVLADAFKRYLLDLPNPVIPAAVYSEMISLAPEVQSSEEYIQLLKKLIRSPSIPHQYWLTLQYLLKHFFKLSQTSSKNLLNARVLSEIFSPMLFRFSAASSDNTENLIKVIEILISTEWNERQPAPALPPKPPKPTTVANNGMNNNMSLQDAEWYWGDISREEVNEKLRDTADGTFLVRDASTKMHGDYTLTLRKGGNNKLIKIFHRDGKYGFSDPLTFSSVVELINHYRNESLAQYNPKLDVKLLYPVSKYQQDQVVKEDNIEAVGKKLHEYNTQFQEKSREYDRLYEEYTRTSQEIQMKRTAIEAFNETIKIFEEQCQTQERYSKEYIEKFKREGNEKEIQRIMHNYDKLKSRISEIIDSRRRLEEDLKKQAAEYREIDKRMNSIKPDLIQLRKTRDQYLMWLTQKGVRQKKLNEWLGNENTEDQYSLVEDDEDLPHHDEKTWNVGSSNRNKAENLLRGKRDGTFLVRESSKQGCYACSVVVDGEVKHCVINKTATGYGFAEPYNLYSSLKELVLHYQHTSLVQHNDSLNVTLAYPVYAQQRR
Summary of the method: as §1

[3] = tested on: T47D (PI3Kα-H1047R) cell line; assay: HTRF phospho-AKT(S473) cell assay in T47D cells; type: cell-based, human; details: Homo sapiens; T47D (PI3Kα-H1047R) cells, HTRF phospho-AKT(S473), 2 hours compound incubation
Summary of the method: (§2)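 T47D: RPMI + 10% FBS + 0.2 units/mL insulin, top 5 μM. SKBR3: McCoy's 5A + 10% FBS, top 10 μM, 70 ng/ml PDGF-BB last 15 min. Both: 12-pt 1:3, 2 h, 37° C, max 0.5% DMSO; HTRF pAKT(S473); IC50.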

[4] = tested on: SKBR3 (PI3Kα-Wild Type) cell line; assay: HTRF phospho-AKT(S473) cell assay in SKBR3 cells; type: cell-based, human; details: Homo sapiens, SK-BR-3; SKBR3 (PI3Kα-Wild Type) cells, HTRF phospho-AKT(S473), 2 hours compound incubation, PDGF-BB stimulated
Summary of the method: as §2

Sequence of PI3Kα H1047R (P42336 whole entry H1047R): as the sequence (P42336 whole entry) above, with H1047R counted along it
Sequence of PI3Kα H1047R (P27986 2-724 partner): as the sequence (P27986 2-724 partner) above

Structure (SMILES) | IC50 [1] [µM] | IC50 [2] [µM] | IC50 [3] [µM] | IC50 [4] [µM]
Cc1cc([C@@H](C)Nc2ccc(Cl)nc2C(=O)NS(C)(=O)=O)c2nc(N3CCOC[C@H]3C)n(C)c(=O)c2c1 [Compound 55, 6-chloro-3-(((R)-1-(3,6-dimethyl-2-((R)-3-methylmorpholino)-4-oxo-3,4-dihydroquinazolin-8-yl)ethyl)amino)-N-(methylsulfonyl) picolinamide] | 0.5 to 1 | ≥ 1 | < 0.25 | 1 to 5
Cc1cc([C@@H](C)Nc2ccc(Cl)nc2C(=O)NS(C)(=O)=O)c2nc(-c3ccc(F)cn3)n(C)c(=O)c2c1 [Compound 88, (R)-6-chloro-3-((1-(2-(5-fluoropyridin-2-yl)-3,6-dimethyl-4-oxo-3,4-dihydroquinazolin-8-yl)ethyl)amino)-N-(methylsulfonyl) picolinamide] | ≥ 1 | ≥ 1 | 0.25 to 0.5 | 1 to 5
C[C@@H](Nc1cccnc1C(=O)NS(C)(=O)=O)c1cccc2c(=O)n(C)c(N3Cc4ccc(F)cc4C3)nc12 [Compound 59, (R)-3-((1-(2-(5-fluoroisoindolin-2-yl)-3-methyl-4-oxo-3,4-dihydroquinazolin-8-yl)ethyl)amino)-N-(methylsulfonyl) picolinamide] | ≥ 1 | ≥ 1 | 1 to 5 | ≥ 5
Cc1cc([C@@H](C)Nc2ccc(Cl)nc2C(=O)NS(C)(=O)=O)c2nc(N3CCC4(CCOCC4)C3)n(C)c(=O)c2c1 [Compound 33, (R)-6-chloro-3-((1-(3,6-dimethyl-4-oxo-2-(8-oxa-2-azaspiro[4.5]decan-2-yl)-3,4-dihydroquinazolin-8-yl)ethyl)amino)-N-(methylsulfonyl) picolinamide] | 0.25 to 0.5 | ≥ 1 | 0.25 to 0.5 | 1 to 5
C[C@@H](Nc1ccc(Cl)nc1C(=O)NS(C)(=O)=O)c1cc(F)cc2c(=O)n(C)c(-c3cncc(F)c3)nc12 [Compound 90, (R)-6-chloro-3-((1-(6-fluoro-2-(5-fluoropyridin-3-yl)-3-methyl-4-oxo-3,4-dihydroquinazolin-8-yl)ethyl)amino)-N-(methylsulfonyl) picolinamide] | ≥ 1 | ≥ 1 | 1 to 5 | 1 to 5
Cc1cc([C@@H](C)Nc2ccc(Cl)nc2C(=O)NS(C)(=O)=O)c2nc(NC3CCC3)n(C)c(=O)c2c1 [Compound 10, (R)-6-chloro-3-((1-(2-(cyclobutylamino)-3,6-dimethyl-4-oxo-3,4-dihydroquinazolin-8-yl)ethyl)amino)-N-(methylsulfonyl) picolinamide] | 0.25 to 0.5 | ≥ 1 | 1 to 5 | ≥ 5
CNS(=O)(=O)NC(=O)c1nc(Cl)ccc1N[C@H](C)c1cc(C)cc2c(=O)n(C)c(N3Cc4ccc(F)cc4C3)nc12 [Compound 73, (R)-6-chloro-3-((1-(2-(5-fluoroisoindolin-2-yl)-3,6-dimethyl-4-oxo-3,4-dihydroquinazolin-8-yl)ethyl)amino)-N-(N-methyl-sulfamoyl)picolinamide] | 0.25 to 0.5 | ≥ 1 | < 0.25 | 1 to 5
Cc1cc([C@@H](C)Nc2ccc(Cl)nc2C(=O)NS(=O)(=O)N(C)C)c2nc(N3Cc4ccc(F)cc4C3)n(C)c(=O)c2c1 [Compound 67, (R)-6-chloro-N-(N,N-dimethyl-sulfamoyl)-3-((1-(2-(5-fluoro-isoindolin-2-yl)-3,6-dimethyl-4-oxo-3,4-dihydroquinazolin-8-yl)ethyl)amino)picolinamide] | ≥ 1 | ≥ 1 | 0.5 to 1 | ≥ 5
CC(=O)NS(=O)(=O)c1nc(Cl)ccc1N[C@H](C)c1cc(C)cc2c(=O)n(C)c(N3CCC(F)(F)CC3)nc12 [Compound 78, (R)-N-((6-chloro-3-((1-(2-(4,4-difluoropiperidin-1-yl)-3,6-dimethyl-4-oxo-3,4-dihydroquinazolin-8-yl)ethyl)amino)pyridin-2-yl)sulfonyl)acetamide] | 0.5 to 1 | ≥ 1 | 0.25 to 0.5 | 1 to 5
Cc1cc([C@@H](C)Nc2ccc(Cl)nc2C(=O)NS(C)(=O)=O)c2nc(-c3cnc(C)nc3)n(C)c(=O)c2c1 [Compound 86, (R)-6-chloro-3-((1-(3,6-dimethyl-2-(2-methylpyrimidin-5-yl)-4-oxo-3,4-dihydroquinazolin-8-yl)ethyl)amino)-N-(methylsulfonyl) picolinamide] | ≥ 1 | ≥ 1 | 0.5 to 1 | 1 to 5

The remaining lines, values ahead:

IC50 [1] [µM] | IC50 [2] [µM] | IC50 [3] [µM] | IC50 [4] [µM] | Structure (SMILES)
0.1 to 0.25 | ≥ 1 | 0.25 to 0.5 | 1 to 5 | Cc1cc2c(=O)n(C)c(N3Cc4ccc(F)cc4C3)nc2c([C@@H](C)Nc2ccc(Cl)nc2C(=O)NS(C)(=O)=O)n1 [Compound 72, (R)-6-chloro-3-((1-(2-(5-fluoroisoindolin-2-yl)-3,6-dimethyl-4-oxo-3,4-dihydro-pyrido[3,4-d]pyrimidin-8-yl)ethyl)amino)-N-(methylsulfonyl)picolinamide]
0.25 to 0.5 | ≥ 1 | < 0.25 | 1 to 5 | Cc1cc([C@@H](C)Nc2ccc(Cl)nc2C(=O)NS(C)(=O)=O)c2nc(N3Cc4cnn(C)c4C3)n(C)c(=O)c2c1 [Compound 4, (R)-6-chloro-3-((1-(3,6-dimethyl-2-(1-methyl-4,6-dihydropyrrolo[3,4-c]pyrazol-5(1H)-yl)-4-oxo-3,4-dihydroquinazolin-8-yl)ethyl)amino)-N-(methylsulfonyl) picolinamide]
0.25 to 0.5 | ≥ 1 | 0.25 to 0.5 | 1 to 5 | Cc1cc([C@@H](C)Nc2ccc(Cl)nc2C(=O)NS(C)(=O)=O)c2nc(N3CCC(F)(F)C[C@@H]3C)n(C)c(=O)c2c1 (mixture of isomers) [Compound 12, 6-chloro-3-(((R)-1-(2-((S)-4,4-difluoro-2-methylpiperidin-1-yl)-3,6-dimethyl-4-oxo-3,4-dihydroquinazolin-8-yl)ethyl)amino)-N-(methylsulfonyl) picolinamide AND 6-chloro-3-(((R)-1-(2-((R)-4,4-difluoro-2-methylpiperidin-1-yl)-3,6-dimethyl-4-oxo-3,4-dihydroquinazolin-8-yl)ethyl)amino)-N-(methylsulfonyl) picolinamide]
0.1 to 0.25 | 0.5 to 1 | < 0.25 | 1 to 5 | CCn1ncc2c1CN(c1nc3c([C@@H](C)Nc4ccc(Cl)nc4C(=O)NS(C)(=O)=O)cc(C)cc3c(=O)n1C)C2 [Compound 45, (R)-6-chloro-3-((1-(2-(1-ethyl-4,6-dihydropyrrolo[3,4-c]pyrazol-5(1H)-yl)-3,6-dimethyl-4-oxo-3,4-dihydroquinazolin-8-yl)ethyl)amino)-N-(methylsulfonyl) picolinamide]
< 0.1 | ≥ 1 | 0.25 to 0.5 | ≥ 5 | CCC(=O)NS(=O)(=O)c1nc(Cl)ccc1N[C@H](C)c1cc(C)cc2c(=O)n(C)c(N3Cc4ccc(F)cc4C3)nc12 [Compound 81, (R)-N-((6-chloro-3-((1-(2-(5-fluoroisoindolin-2-yl)-3,6-dimethyl-4-oxo-3,4-dihydroquinazolin-8-yl)ethyl)amino)pyridin-2-yl)sulfonyl)propionamide]
